# Test system: maize haploids
# Experiment: Colchicine doubling treatment of BC3 haploids, pollen and kernel phenotypes in the field
# Format: in vivo
# Details: for Average Number of Days of Pollen per Plant / Average Number of Kernels per Plant / Percent of Plants with Ears >5 kernels: colchicine-treated haploids
# Source text: Genotyping was used to identify heterozygotes at SCD-QTL1, and those materials were then crossed by a haploid inducer, embryos isolated from the immature ears, and haploids regenerated for transplant into the field. Immediately after isolation, embryos from each of the 17 BC3 populations were split into 2 treatment groups. […] All lines were planted across three replications of the trial over the course of approximately 6 months, and the data was pooled for analysis.
# [1] = BC3 recurrent parent Line 1, SCD Allele
# [2] = BC3 recurrent parent Line 1, Unfavorable Allele
# [3] = BC3 recurrent parent Line 2, SCD Allele
# [4] = BC3 recurrent parent Line 2, Unfavorable Allele
# [5] = BC3 recurrent parent Line 3, SCD Allele
# [6] = BC3 recurrent parent Line 3, Unfavorable Allele
# [7] = BC3 recurrent parent Line 4, SCD Allele
# [8] = BC3 recurrent parent Line 4, Unfavorable Allele
# [9] = BC3 recurrent parent Line 5, SCD Allele
# [10] = BC3 recurrent parent Line 5, Unfavorable Allele
# [11] = BC3 recurrent parent Line 6, SCD Allele
# [12] = BC3 recurrent parent Line 6, Unfavorable Allele
# [13] = BC3 recurrent parent Line 7, SCD Allele
# [14] = BC3 recurrent parent Line 7, Unfavorable Allele
# [15] = BC3 recurrent parent Line 8, SCD Allele
# [16] = BC3 recurrent parent Line 8, Unfavorable Allele
# [17] = BC3 recurrent parent Line 9, SCD Allele
# [18] = BC3 recurrent parent Line 9, Unfavorable Allele
# [19] = BC3 recurrent parent Line 10, SCD Allele
# [20] = BC3 recurrent parent Line 10, Unfavorable Allele
# [21] = BC3 recurrent parent Line 11, SCD Allele
# [22] = BC3 recurrent parent Line 11, Unfavorable Allele
# [23] = BC3 recurrent parent Line 12, SCD Allele
# [24] = BC3 recurrent parent Line 12, Unfavorable Allele
# [25] = BC3 recurrent parent Line 13, SCD Allele
# [26] = BC3 recurrent parent Line 13, Unfavorable Allele
# [27] = BC3 recurrent parent Line 14, SCD Allele
# [28] = BC3 recurrent parent Line 14, Unfavorable Allele
# [29] = BC3 recurrent parent Line 15, SCD Allele
# [30] = BC3 recurrent parent Line 15, Unfavorable Allele
# [31] = BC3 recurrent parent Line 16, SCD Allele
# [32] = BC3 recurrent parent Line 16, Unfavorable Allele
# [33] = BC3 recurrent parent Line 17, SCD Allele
# [34] = BC3 recurrent parent Line 17, Unfavorable Allele
smiles,measurement,setting,value
"COc1cc2c(c(OC)c1OC)-c1ccc(OC)c(=O)cc1[C@@H](NC(C)=O)CC2 [Colchicine, colchicine]",Average Number of Days of Pollen per Plant,[1],3.1 days
same,Average Number of Kernels per Plant,[1],23.8 kernels
same,Percent of Plants with Ears >5 kernels,[1],53.9%
same,Average Number of Days of Pollen per Plant,[2],2.4 days
same,Average Number of Kernels per Plant,[2],13.5 kernels
same,Percent of Plants with Ears >5 kernels,[2],26.6%
same,Average Number of Days of Pollen per Plant,[3],1.72 days
same,Average Number of Kernels per Plant,[3],5 kernels
same,Percent of Plants with Ears >5 kernels,[3],12.0%
same,Average Number of Days of Pollen per Plant,[4],2.35 days
same,Average Number of Kernels per Plant,[4],9.62 kernels
same,Percent of Plants with Ears >5 kernels,[4],13.5%
same,Average Number of Days of Pollen per Plant,[5],1.76 days
same,Average Number of Kernels per Plant,[5],7.62 kernels
same,Percent of Plants with Ears >5 kernels,[5],6.9%
same,Average Number of Days of Pollen per Plant,[6],1.45 days
same,Average Number of Kernels per Plant,[6],9.03 kernels
same,Percent of Plants with Ears >5 kernels,[6],9.1%
same,Average Number of Days of Pollen per Plant,[7],0.04 days
same,Average Number of Kernels per Plant,[7],0 kernels
same,Percent of Plants with Ears >5 kernels,[7],0.0%
same,Average Number of Days of Pollen per Plant,[8],0.57 days
same,Average Number of Kernels per Plant,[8],7.1 kernels
same,Percent of Plants with Ears >5 kernels,[8],13.2%
same,Average Number of Days of Pollen per Plant,[9],2.34 days
same,Average Number of Kernels per Plant,[9],2.31 kernels
same,Percent of Plants with Ears >5 kernels,[9],3.1%
same,Average Number of Days of Pollen per Plant,[10],2.19 days
same,Average Number of Kernels per Plant,[10],4.88 kernels
same,Percent of Plants with Ears >5 kernels,[10],7.6%
same,Average Number of Days of Pollen per Plant,[11],1.675 days
same,Average Number of Kernels per Plant,[11],11.23 kernels
same,Percent of Plants with Ears >5 kernels,[11],25.0%
same,Average Number of Days of Pollen per Plant,[12],2.01 days
same,Average Number of Kernels per Plant,[12],19.09 kernels
same,Percent of Plants with Ears >5 kernels,[12],27.2%
same,Average Number of Days of Pollen per Plant,[13],1.58 days
same,Average Number of Kernels per Plant,[13],53.5 kernels
same,Percent of Plants with Ears >5 kernels,[13],37.9%
same,Average Number of Days of Pollen per Plant,[14],1.298 days
same,Average Number of Kernels per Plant,[14],54.18 kernels
same,Percent of Plants with Ears >5 kernels,[14],29.9%
same,Average Number of Days of Pollen per Plant,[15],1.72 days
same,Average Number of Kernels per Plant,[15],37.34 kernels
same,Percent of Plants with Ears >5 kernels,[15],31.1%
same,Average Number of Days of Pollen per Plant,[16],1.466 days
same,Average Number of Kernels per Plant,[16],26.17 kernels
same,Average Number of Days of Pollen per Plant,[17],2.58 days
same,Average Number of Kernels per Plant,[17],27.9 kernels
same,Average Number of Days of Pollen per Plant,[18],2.51 days
same,Average Number of Kernels per Plant,[18],24.067 kernels
same,Percent of Plants with Ears >5 kernels,[18],29.3%
same,Average Number of Days of Pollen per Plant,[19],1.12 days
same,Average Number of Kernels per Plant,[19],23.17 kernels
same,Average Number of Days of Pollen per Plant,[20],1.005 days
same,Average Number of Kernels per Plant,[20],13.75 kernels
same,Percent of Plants with Ears >5 kernels,[20],26.4%
same,Average Number of Days of Pollen per Plant,[21],1.09 days
same,Average Number of Kernels per Plant,[21],4.97 kernels
same,Percent of Plants with Ears >5 kernels,[21],8.7%
same,Average Number of Days of Pollen per Plant,[22],1.2 days
same,Average Number of Kernels per Plant,[22],18.11 kernels
same,Percent of Plants with Ears >5 kernels,[22],17.5%
same,Average Number of Days of Pollen per Plant,[23],1.25 days
same,Average Number of Kernels per Plant,[23],19.56 kernels
same,Percent of Plants with Ears >5 kernels,[23],28.5%
same,Average Number of Days of Pollen per Plant,[24],0.96 days
same,Average Number of Kernels per Plant,[24],22.12 kernels
same,Percent of Plants with Ears >5 kernels,[24],21.3%
same,Average Number of Days of Pollen per Plant,[25],1.45 days
same,Average Number of Kernels per Plant,[25],32.5 kernels
same,Percent of Plants with Ears >5 kernels,[25],25.8%
same,Average Number of Days of Pollen per Plant,[26],1.33 days
same,Average Number of Kernels per Plant,[26],24.5 kernels
same,Percent of Plants with Ears >5 kernels,[26],24.7%
same,Average Number of Days of Pollen per Plant,[27],1.28 days
same,Average Number of Kernels per Plant,[27],31 kernels
same,Percent of Plants with Ears >5 kernels,[27],29.9%
same,Average Number of Days of Pollen per Plant,[28],1.1 days
same,Average Number of Kernels per Plant,[28],40.57 kernels
same,Percent of Plants with Ears >5 kernels,[28],26.2%
same,Average Number of Days of Pollen per Plant,[29],2.66 days
same,Average Number of Kernels per Plant,[29],45.47 kernels
same,Percent of Plants with Ears >5 kernels,[29],64.9%
same,Average Number of Days of Pollen per Plant,[30],2.81 days
same,Average Number of Kernels per Plant,[30],72.9 kernels
same,Percent of Plants with Ears >5 kernels,[30],72.2%
same,Average Number of Days of Pollen per Plant,[31],1.65 days
same,Average Number of Kernels per Plant,[31],31.56 kernels
same,Average Number of Days of Pollen per Plant,[32],1.67 days
same,Average Number of Kernels per Plant,[32],28.03 kernels
same,Percent of Plants with Ears >5 kernels,[32],37.6%
same,Average Number of Days of Pollen per Plant,[33],2.63 days
same,Average Number of Kernels per Plant,[33],52.86 kernels
same,Percent of Plants with Ears >5 kernels,[33],49.1%
same,Average Number of Days of Pollen per Plant,[34],2.51 days
same,Average Number of Kernels per Plant,[34],58.48 kernels
same,Percent of Plants with Ears >5 kernels,[34],50.4%
same,pollen and kernel production,"colchicine-treated groups compared with SCD-QTL1 alone, 17 BC3 populations pooled",performed overall better in both pollen and kernel production than the SCD-QTL1 alone
